US20030018166A1 (priority 2000, published 2003)
“Also recorded” adds a separate entry of the source. Like-named read-outs stand apart in the source and are kept apart here.

Legend:
[1] = molecular target: recombinant Icl (isocitrate lyase) (Mycobacterium tuberculosis, UniProt P9WKK7); assay: biochemical; type: biochemical, M. tuberculosis (CSU93); details: for inhibit the activity to approximately: 5 mM inhibitor concentration; for Ki: read-out: inhibition constants
[2] = tested on: wild type M. smegmatis mc^2155; type: cell-based; details: discs 30 mM and 60 mM
[3] = tested on: O=C(O)CC(C(=O)O)C(O)C(=O)O; assay: purified protein, by the assay type

Sequence of recombinant Icl (isocitrate lyase) (P9WKK7 whole entry): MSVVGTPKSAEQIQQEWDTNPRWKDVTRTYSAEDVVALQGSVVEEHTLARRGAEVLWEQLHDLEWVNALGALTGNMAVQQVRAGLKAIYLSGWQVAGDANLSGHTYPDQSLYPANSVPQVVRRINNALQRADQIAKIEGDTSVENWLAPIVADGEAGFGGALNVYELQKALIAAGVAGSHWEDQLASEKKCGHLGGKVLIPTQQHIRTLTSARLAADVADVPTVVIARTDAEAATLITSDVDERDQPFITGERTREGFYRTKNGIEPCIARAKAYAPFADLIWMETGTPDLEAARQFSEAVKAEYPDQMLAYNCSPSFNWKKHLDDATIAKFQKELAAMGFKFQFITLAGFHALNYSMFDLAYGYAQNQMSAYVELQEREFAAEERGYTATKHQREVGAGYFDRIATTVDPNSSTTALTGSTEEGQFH

Compound | Ki [1] | inhibitory effect on Icl activity [1] | further results
O=C(O)CC(O)C(=O)O (stereo not shown) [malate] | – | – | inhibit the activity to approximately [1]: approximately 50%
O=C(O)CCC(=O)O [succinate] | – | – | inhibitory effect on the recombinant enzyme [1]: did not reveal any inhibitory effect
O=C(O)CC[N+](=O)[O-] [3-nitropropionate] | 3 µM | – | effect on growth, inhibition zone around disc ([2]; grown on acetate): restricted to growth on acetate; also recorded: inhibitory; effect on growth, inhibition zone around disc ([2]; grown on glucose): not observed; also recorded: no effect
O=C(O)C(=O)O [Oxalate] | – | – | inhibit the activity to approximately [1]: approximately 50%
C=C(CC(=O)O)C(=O)O [Itaconate] | 120 µM | – | –
recombinant AceA (isocitrate lyase) (Mycobacterium tuberculosis CDC1551) | – | – | Km ([3]; other: Tricine-HCl buffer at pH 7.5, pH 7.5): 1300 µM
O=C(O)[C@H](O)COP(=O)(O)O [3-Phosphoglycerate] | – | no inhibitory effect | –
O=C(O)CC(=O)O [malonic acid] | – | no inhibitory effect | –
O=C(O)C(=O)CBr [bromopyruvate, 3-bromopyruvate] | 120 µM | – | effect on growth, inhibition zone around disc ([2]; grown on glucose): no effect
C=C1CC(=O)OC1=O [itaconic anhydride] | 190 µM | – | –
recombinant Icl (isocitrate lyase) (Mycobacterium tuberculosis H37Rv) | – | – | Km ([3]; other: Hanes-Woolf plot): 145 µM
O=C(COP(=O)(O)O)[C@@H](O)[C@H](O)[C@H](O)COP(=O)(O)O [fructose-1,6-bisphosphate] | – | no inhibitory effect | –
O=C(O)[C@H](O)[C@@H](O)[C@H](O)[C@H](O)COP(=O)(O)O [6-phosphogluconate] | – | no inhibitory effect | –
